# Target: T1, mite allergen Derf2 (Dermatophagoides farinae, UniProt Q00855)
# T1 construct: mite allergen Derf2 contained in standard house dust; from tissue; host or cells: standard house dust (natural mite allergen, not recombinant)
# T1 sequence (Q00855 18-146): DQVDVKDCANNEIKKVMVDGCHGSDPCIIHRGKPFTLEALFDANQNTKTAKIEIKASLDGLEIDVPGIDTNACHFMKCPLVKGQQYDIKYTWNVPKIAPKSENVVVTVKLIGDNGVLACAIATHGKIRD
# Assay: Effects of processed fiber for reducing mite allergen (sandwich ELISA)
# Type: biochemical
# Details: 5% treatment solution, 1 hour; for Mite allergen concentration: 1 ml mite allergen buffer
# Procedure: At the outset, anti-Derf2 monoclonal antibody 15E11, which was diluted to 2 μg/ml in phosphate buffer (pH 7.4, containing 0.1% by weight of NaN3) was applied to the F16 Maxisorp Nunc-Immuno Module plate (NUNC) in amounts of 100 μl per well and subjected to sensitization at 4° C. for at least 1 day. After sensitization, the liquid was removed, a blocking reagent (1% by weight of bovine serum albumin and phosphate buffer (pH 7.2, containing 0.1% by weight of NaN3)) was added in amounts of 100 μl per well, and the reaction was allowed to proceed at 37° C. for 60 minutes. After the reaction, the plate was washed in phosphate buffer (pH 7.2, containing 0.1% by weight of polyoxyethylene (20) sorbitan monolaurate). Subsequently, the sample resulting from the reaction of mite allergens with the aforementioned solution was added dropwise thereto in amounts of 100 μl per well, and the reaction was allowed to proceed at 37° C. for 60 minutes.
# After the reaction, the plate was washed in phosphate buffer (pH 7.2, containing 0.1% by weight of polyoxyethylene (20) sorbitan monolaurate). The peroxidase-labeled anti-Derf2 monoclonal antibody was dissolved to 200 μg/ml in distilled water, the resultant was diluted 1,000-fold with phosphate buffer (pH 7.2, containing 1% by weight of bovine serum albumin and 0.1% by weight of polyoxyethylene (20) sorbitan monolaurate), and the resulting solution was added in amounts of 100 μl per well. The reaction was allowed to proceed at 37° C. for 60 minutes, and the plate was first washed with phosphate buffer (pH 7.2, containing 0.1% by weight of polyoxyethylene (20) sorbitan monolaurate) and then with distilled water. Ortho-phenylenediamine dihydrochloride (26 mg tablet, Sigma Chemical Co.) and a hydrogen peroxide solution (13 μl) were added to 13 ml of 0.1 mol/l phosphate buffer (pH 6.2), the resultant was added in amounts of 100 μl per well, and the reaction was allowed to proceed at 37° C. for 5 minutes. Immediately thereafter, 50 μl each of 2 mol/l H2SO4 was introduced so as to terminate the reaction, and the absorbance (OD 490 nm) was assayed using a microplate spectrophotometer (Bio-Rad Laboratories Inc.)
# The allergen-reducing fabric obtained in Example 8 was tested in terms of the effects of allergen reduction. As a control, a white cotton broadcloth and polyethylene terephthalate (PET) cloth were soaked via a padding method in an aqueous solution of 5% tannic acid (an equivalent of JP Patent Publication (kokai) No. 61-44821 A (1986)), the clothes were dried at 110° C. for 2 minutes, and the resultants were tested in terms of the effects of allergen reduction.
# The clothes (5 cm×5 cm each) were introduced into reclosable plastic bags, 1 ml of phosphate buffer (pH 7.2) of mite allergen was added thereto, and the resultants were allowed to stand for 1 hour. The centrifuged samples were subjected to enzyme immunoassay (i.e., sandwich ELISA) in the same manner as in Test Example 1 to inspect the effects of reducing mite allergen Derf2.
# [1] = PET cloth 5 cm×5 cm, not treated: 970 ng/ml
# [2] = cotton broadcloth 5 cm×5 cm, not treated: 720 ng/ml
Structure (SMILES),Mite allergen concentration [1] [ng/mL],Reduction (PET cloth 5 cm×5 cm) [%],Mite allergen concentration [2] [ng/mL],Reduction (cotton broadcloth 5 cm×5 cm) [%]
CC(=O)N1C[C@H](O)C[C@H]1C(=O)O [N-acetyl-trans-4-hydroxy-L-proline],2.3,99.8,3.5,99.5
O=C(OC[C@H]1O[C@@H](OC(=O)c2cc(O)c(O)c(OC(=O)c3cc(O)c(O)c(O)c3)c2)[C@H](OC(=O)c2cc(O)c(O)c(OC(=O)c3cc(O)c(O)c(O)c3)c2)[C@@H](OC(=O)c2cc(O)c(O)c(OC(=O)c3cc(O)c(O)c(O)c3)c2)[C@@H]1OC(=O)c1cc(O)c(O)c(OC(=O)c2cc(O)c(O)c(O)c2)c1)c1cc(O)c(O)c(OC(=O)c2cc(O)c(O)c(O)c2)c1 [tannic acid],190,80,120,83

# From patent US8338404B2, “Composition and method for reducing allergen” (Kyowa Hakko Bio Co., Ltd., priority 2007, dated 2012)
